We go through 1 compound from patent US12390441B2, “Immunomodulating o-het/aryl azalides” (Zoetis Services LLC, priority 2020, dated 2025).

This assay deals with P. multocida 46572. Description: In vivo mouse lung infection challenge model (murine). More on the design: species or system CD-1 female mice. An outline of the steps: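 CD-1 female mice were challenged intranasally with mid-log P. multocida 46572 (target 5×10^2 CFU/mouse), then given 20 mg/kg subcutaneously in buffered (~pH 5.4) propylene glycol/monothioglycerol/water. Mortality was followed to Day 10, analysed by generalized mixed model and survival analysis; harmonized survival is relative to vehicle and positive controls.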

Regarding `CCCNC[C@]1(O)[C@H](C)O[C@@H](O[C@H]2[C@H](C)[C@@H](O[C@@H]3O[C@H](C)C[C@H](NC)[C@H]3O)[C@](C)(O)C[C@@H](C)CN[C@H](C)[C@@H](O)[C@](C)(O)[C@@H](CC)OC(=O)[C@@H]2C)C[C@@]1(C)OC` [Example M9, (2R,3S,4R,5R,8R,10R,11R,12S,13S,14R)-2-ethyl-3,4,10-trihydroxy-13-(((2R,4R,5S,6S)-5-hydroxy-4-methoxy-4,6-dimethyl-5-((propylamino)methyl)-tetrahydro-2H-pyran-2-yl)oxy)-11-(((2S,3R,4S,6R)-3-hydroxy-6-methyl-4-(methylamino)tetrahydro-2H-pyran-2-yl)oxy)-3,5,8,10,12,14-hexamethyl-1-oxa-6-azacyclopentadecan-15-one], for the setting “M9 positive control, 20 mg/kg”, the Mouse survival is given as 90-100%. The “clinical efficacy, P. multocida infection in mice” value (mouse, in vivo) is reported as “clinically efficacious”.
